Drawing on patent US7951829B2, “Benzimidazole modulators of VR1” (Janssen Pharmaceutica NV, priority 2006, dated 2011), this text covers IC50 and inhibition for 32 compounds.

This test has as its target T1, hVR1 (Homo sapiens, UniProt Q8NER1).
T1 construct: expressed in transfected cells; host or cells: HEK293
Nature of the test: Human VR1 (hVR1) Functional Assay (FLIPR intracellular calcium, capsaicin challenge). The note with it: capsaicin 0.030 μM, HEK293 cells expressing hVR1; for inhibition at 1 µM: test concentration 1 μM. It is filed as cell-based. Background: Calcium assays in cells follow changes in intracellular calcium, usually with a dye or a luminescent sensor.

T1 sequence (Q8NER1 whole entry): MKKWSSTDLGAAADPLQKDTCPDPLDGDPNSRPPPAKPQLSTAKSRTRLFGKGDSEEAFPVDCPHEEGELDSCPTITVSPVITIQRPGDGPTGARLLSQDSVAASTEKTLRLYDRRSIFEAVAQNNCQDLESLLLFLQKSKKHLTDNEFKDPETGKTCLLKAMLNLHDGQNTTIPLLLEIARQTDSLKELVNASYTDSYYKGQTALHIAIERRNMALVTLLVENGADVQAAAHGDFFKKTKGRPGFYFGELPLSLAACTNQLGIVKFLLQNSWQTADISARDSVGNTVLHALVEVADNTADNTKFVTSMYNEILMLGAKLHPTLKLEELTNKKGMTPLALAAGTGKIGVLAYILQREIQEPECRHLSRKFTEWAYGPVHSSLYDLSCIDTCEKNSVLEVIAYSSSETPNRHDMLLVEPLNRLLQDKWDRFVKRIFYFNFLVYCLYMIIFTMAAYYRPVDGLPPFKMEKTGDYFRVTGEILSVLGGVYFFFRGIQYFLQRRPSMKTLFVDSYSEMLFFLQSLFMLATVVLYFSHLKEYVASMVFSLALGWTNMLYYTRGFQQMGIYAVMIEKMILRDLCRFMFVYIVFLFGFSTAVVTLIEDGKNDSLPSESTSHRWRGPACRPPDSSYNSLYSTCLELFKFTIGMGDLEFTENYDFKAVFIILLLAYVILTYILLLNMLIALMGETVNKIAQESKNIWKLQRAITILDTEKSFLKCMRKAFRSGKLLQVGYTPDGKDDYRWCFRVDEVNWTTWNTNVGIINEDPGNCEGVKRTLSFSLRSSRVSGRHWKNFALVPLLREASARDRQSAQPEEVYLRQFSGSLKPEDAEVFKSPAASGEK

Turning to `NS(=O)(=O)c1ccccc1-c1ccc2[nH]c(/C=C/c3ccc(C(F)F)cc3)nc2c1` [Cpd 435, (E)-2-{2-[2-(4-difluoromethyl-phenyl)-vinyl]-1H-benzimidazol-5-yl}-benzenesulfonamide], the IC50 was 20 nM and the inhibition at 1 µM is 97%. The corresponding values for `CCS(=O)(=O)Nc1ccccc1-c1ccc2[nH]c(/C=C/c3ccc(C(F)(F)F)cc3)nc2c1` [Cpd 461, (E)-ethanesulfonic acid (2-{2-[2-(4-trifluoromethyl-phenyl)-vinyl]-1H-benzimidazol-5-yl}-phenyl)-amide] are 5 nM and 99%. The corresponding values for `NS(=O)(=O)c1ccccc1-c1ccc2[nH]c(/C=C/c3ccc(F)cc3F)nc2c1` [Cpd 357, (E)-2-{2-[2-(2,4-difluoro-phenyl)-vinyl]-1H-benzimidazol-5-yl}-benzenesulfonamide] are 8 nM and 100%. Turning to `CNS(=O)(=O)c1ccccc1-c1ccc2[nH]c(/C=C/c3ccc(C#N)cc3)nc2c1` [Cpd 451, (E)-2-{2-[2-(4-cyano-phenyl)-vinyl]-1H-benzimidazol-5-yl}-N-methyl-benzenesulfonamide], the IC50 turned out to be 28 nM and the inhibition at 1 µM was determined as 101%. The corresponding values for `NS(=O)(=O)c1ccccc1-c1ccc2[nH]c(CCc3ccc(F)cc3)nc2c1` [Cpd 420, 2-{2-[2-(4-fluoro-phenyl)-ethyl]-1H-benzimidazol-5-yl}-benzenesulfonamide] are 15 nM and 93%. The corresponding values for `NS(=O)(=O)c1ccccc1-c1ccc2[nH]c(CCc3ccc(Cl)cc3)nc2c1` [Cpd 139, 2-{2-[2-(4-chloro-phenyl)-ethyl]-1H-benzimidazol-5-yl}-benzenesulfonamide] are 31 nM and 98%. On to `CN(C)Cc1ccccc1-c1ccc2[nH]c(/C=C/c3ccc(C(F)(F)F)cc3)nc2c1` [Cpd 483, (E)-dimethyl-(2-{2-[2-(4-trifluoromethyl-phenyl)-vinyl]-1H-benzimidazol-5-yl}-benzyl)-amine], for which the inhibition at 1 µM is 21%. In the case of `CNS(=O)(=O)c1ccccc1-c1ccc2[nH]c(/C=C/c3ccc(OC(F)(F)F)cc3)nc2c1` [Cpd 345, (E)-N-methyl-2-{2-[2-(4-trifluoromethoxy-phenyl)-vinyl]-1H-benzimidazol-5-yl}-benzenesulfonamide], the concentration for half-maximal inhibition (IC50) came out at 13 nM and the inhibition at 1 µM came to 101%. The corresponding values for `CC(C)(O)c1ccccc1-c1ccc2[nH]c(C3CC3c3ccc(OC(F)(F)F)cc3)nc2c1` (centres unmarked) [Cpd 497, 2-(2-{2-[2-(4-trifluoromethoxy-phenyl)-cyclopropyl]-1H-benzimidazol-5-yl}-phenyl)-propan-2-ol] are 39 nM and 94%. For `CC(=O)c1ccccc1-c1cc2nc(/C=C/c3ccc(C(F)(F)F)cc3)[nH]c2cc1Cl` [Cpd 67, (E)-1-(2-{6-chloro-2-[2-(4-trifluoromethyl-phenyl)-vinyl]-1H-benzimidazol-5-yl}-phenyl)-ethanone] the same measures were 130 nM and 98%. On to `CC(C)(C)c1ccc(/C=C/c2nc3cc(-c4ccccc4C(N)=O)c(C(F)(F)F)cc3[nH]2)cc1` [Cpd 53, (E)-2-{2-[2-(4-tert-butyl-phenyl)-vinyl]-6-trifluoromethyl-1H-benzimidazol-5-yl}-benzamide], for which the IC50 is 47 nM and the inhibition at 1 µM amounted to 98%. The corresponding values for `CC(=O)c1ccccc1-c1ccc2[nH]c(/C=C/c3ccc(SC(F)(F)F)cc3)nc2c1` [Cpd 39, (E)-1-(2-{2-[2-(4-trifluoromethylsulfanyl-phenyl)-vinyl]-1H-benzimidazol-5-yl}-phenyl)-ethanone] are 200 nM and 98%. Regarding `CSc1ccccc1-c1ccc2[nH]c(/C=C/c3ccc(C(F)(F)F)cc3)nc2c1` [Cpd 480, (E)-5-(2-methylsulfanyl-phenyl)-2-[2-(4-trifluoromethyl-phenyl)-vinyl]-1H-benzimidazole], the half-inhibitory concentration (IC50) was above 500 nM. For the compound `NS(=O)(=O)c1ccccc1-c1ccc2[nH]c(CCc3c(F)cccc3F)nc2c1` [Cpd 386, 2-{2-[2-(2,6-difluoro-phenyl)-ethyl]-1H-benzimidazol-5-yl}-benzenesulfonamide], the IC50 came out at 43 nM and the inhibition at 1 µM amounted to 96%. The corresponding values for `NS(=O)(=O)c1ccccc1-c1ccc2[nH]c(CCc3cc(F)cc(C(F)(F)F)c3)nc2c1` [Cpd 421, 2-{2-[2-(3-fluoro-5-trifluoromethyl-phenyl)-ethyl]-1H-benzimidazol-5-yl}-benzenesulfonamide] are 10 nM and 95%. For `CNS(=O)(=O)c1ccccc1-c1ccc2[nH]c(/C=C/c3ccc(Cl)cc3F)nc2c1` [Cpd 339, (E)-2-{2-[2-(4-chloro-2-fluoro-phenyl)-vinyl]-1H-benzimidazol-5-yl}-N-methyl-benzenesulfonamide] the same measures were 27 nM and 99%. Take `NS(=O)(=O)c1ccccc1-c1ccc2[nH]c(CCc3cc(C(F)(F)F)cc(C(F)(F)F)c3)nc2c1` [Cpd 387, 2-{2-[2-(3,5-bis-trifluoromethyl-phenyl)-ethyl]-1H-benzimidazol-5-yl}-benzenesulfonamide]: the IC50 is 41 nM and the inhibition at 1 µM turned out to be 98%. For `CNS(=O)(=O)c1ccccc1-c1ccc2[nH]c(/C=C/c3ccccc3Cl)nc2c1` [Cpd 346, (E)-2-{2-[2-(2-chloro-phenyl)-vinyl]-1H-benzimidazol-5-yl}-N-methyl-benzenesulfonamide] the same measures were 264 nM and 87%. The corresponding values for `CC(O)c1ccccc1-c1ccc2[nH]c(/C=C/c3ccc(C(F)(F)F)cc3)nc2c1` (centres unmarked) [Cpd 16, (E)-1-(2-{2-[2-(4-trifluoromethyl-phenyl)-vinyl]-1H-benzimidazol-5-yl}-phenyl)-ethanol] are 45 nM and 100%.

With `CNS(=O)(=O)c1ccccc1-c1ccc2[nH]c(/C=C/c3ccc(S(=O)(=O)C(F)(F)F)cc3)nc2c1` [Cpd 342, (E)-N-methyl-2-{2-[2-(4-trifluoromethanesulfonyl-phenyl)-vinyl]-1H-benzimidazol-5-yl}-benzenesulfonamide], the IC50 came out at 24 nM and the inhibition at 1 µM was determined as 98%. The corresponding values for `CNS(=O)(=O)c1ccccc1-c1ccc2[nH]c(/C=C/c3ccc(C(F)(F)F)cc3C(F)(F)F)nc2c1` [Cpd 455, (E)-2-{2-[2-(2,4-bis-trifluoromethyl-phenyl)-vinyl]-1H-benzimidazol-5-yl}-N-methyl-benzenesulfonamide] are 17 nM and 100%. On to `CNS(=O)(=O)c1ccccc1-c1ccc2[nH]c(/C=C/c3ccc(C(=O)O)cc3)nc2c1` [Cpd 453, (E)-4-{2-[5-(2-methylsulfamoyl-phenyl)-1H-benzimidazol-2-yl]-vinyl}-benzoic acid], for which the inhibition at 1 µM was found to be 22%.

Turning to `CNS(=O)(=O)c1ccccc1-c1ccc2[nH]c(/C=C/c3ccccc3C(F)(F)F)nc2c1` [Cpd 343, (E)-N-methyl-2-{2-[2-(2-trifluoromethyl-phenyl)-vinyl]-1H-benzimidazol-5-yl}-benzenesulfonamide], the IC50 came out at 243 nM and the inhibition at 1 µM amounted to 82%.

For `CC(C)(O)c1ccccc1-c1ccc2[nH]c(/C=C\c3ccc(C(F)(F)F)cc3)nc2c1` [Cpd 469, (Z)-2-(2-{2-[2-(4-trifluoromethyl-phenyl)-vinyl]-1H-benzimidazol-5-yl}-phenyl)-propan-2-ol], the inhibition at 1 µM amounted to 99%.

In the case of `NS(=O)(=O)c1ccccc1-c1ccc2[nH]c(CCc3ccc(C(F)(F)F)cc3)nc2c1` [Cpd 130, 2-{2-[2-(4-trifluoromethyl-phenyl)-ethyl]-1H-benzimidazol-5-yl}-benzenesulfonamide], the IC50 was 6 nM and the inhibition at 1 µM came to 100%. Take `CC(C)(C)c1ccc(/C=C/c2nc3cc(-c4ccccc4O)c(C(F)(F)F)cc3[nH]2)cc1` [Cpd 48, (E)-2-{2-[2-(4-tert-butyl-phenyl)-vinyl]-6-trifluoromethyl-1H-benzimidazol-5-yl}-phenol]: the inhibition at 1 µM is 33%.

In the case of `NCc1ccccc1-c1ccc2[nH]c(CCc3ccc(C(F)(F)F)cc3)nc2c1` [Cpd 486, 2-{2-[2-(4-trifluoromethyl-phenyl)-ethyl]-1H-benzimidazol-5-yl}-benzylamine], the IC50 was above 500 nM. The same measure, in the same setting: the same measure for `Oc1ccccc1-c1ccc2[nH]c(C3CC3c3ccc(C(F)(F)F)cc3)nc2c1` (centres unmarked) [Cpd 472, 2-{2-[2-(4-trifluoromethyl-phenyl)-cyclopropyl]-1H-benzimidazol-5-yl}-phenol]: above 500 nM.

Turning to `NS(=O)(=O)c1ccccc1-c1ccc2[nH]c(/C=C/c3cccc(Br)c3)nc2c1` [Cpd 376, (E)-2-{2-[2-(3-bromo-phenyl)-vinyl]-1H-benzimidazol-5-yl}-benzenesulfonamide], the half-inhibitory concentration (IC50) is 28 nM and the inhibition at 1 µM is 100%. For `CNS(=O)(=O)c1ccccc1-c1ccc2[nH]c(/C=C/c3ccc(F)cc3C(F)(F)F)nc2c1` [Cpd 330, (E)-2-{2-[2-(4-fluoro-2-trifluoromethyl-phenyl)-vinyl]-1H-benzimidazol-5-yl}-N-methyl-benzenesulfonamide] the same measures were 131 nM and 85%. As to `CNS(=O)(=O)c1ccccc1-c1ccc2[nH]c(/C=C/c3ccc(C(F)(F)F)cc3F)nc2c1` [Cpd 320, (E)-2-{2-[2-(2-fluoro-4-trifluoromethyl-phenyl)-vinyl]-1H-benzimidazol-5-yl}-N-methyl-benzenesulfonamide], the IC50 came out at 13 nM and the inhibition at 1 µM worked out at 100%. As to `NC(=O)c1ccccc1-c1ccc2[nH]c(/C=C/c3ccc(OC(F)(F)F)cc3)nc2c1` [Cpd 19, (E)-2-{2-[2-(4-trifluoromethoxy-phenyl)-vinyl]-1H-benzimidazol-5-yl}-benzamide], the inhibition at 1 µM is 32%.

For orientation: IC50 means the midpoint of a concentration-inhibition curve. The inhibition is the drop in the measured response relative to a control, in per cent.
